This note sets out measurements from paper PMC6105673 (Nature Communications, 2018).

SMILES strings stand for the structures.

For the assay, the target named is T1, pVHL-elongin B-elongin C (VBC) complex (Homo sapiens, UniProt P40337+Q15369+Q15370).
T1 construct: a construct encoding N-terminal GST-tagged pVHL19 (54–213); GST (N, cleaved yes); made in house; host or cells: BL21(DE3) E. coli
Put plainly: Biolayer interferometry kinetic analysis of VBC complex binding to biotinylated HIF-2α peptides. The conditions noted are these: for ka (association rate): purified VBC. On the procedure:
Absorbance was read at 450 nm. […] The data were analyzed based on a 1:1 binding model using the BLItz Pro software with the fitted curves shown as gray lines. […] Values represent mean of three experiments conducted with independently purified protein ± SEM. * denotes uncharacterized band
Multiple concentrations of purified VBC complex were diluted in kinetics buffer and allowed to associate with immobilized peptide over 120 s. Subsequently, the SA-BLI probe was immersed into kinetics buffer for 120 s to allow for dissociation. The data were analyzed, step corrected, reference corrected, and fit to a global 1:1 binding model. Kd, ka, and kd were calculated using the BLItz Pro software.
On the technique in general: In BLI a coated tip is dipped into the sample, and binding shifts an interference pattern.

Setting [1] is: BLItz biolayer interferometry, peptide (523–541) immobilized, global 1:1 model, mean of three experiments ± SEM.

T1 sequence (P40337 54-213): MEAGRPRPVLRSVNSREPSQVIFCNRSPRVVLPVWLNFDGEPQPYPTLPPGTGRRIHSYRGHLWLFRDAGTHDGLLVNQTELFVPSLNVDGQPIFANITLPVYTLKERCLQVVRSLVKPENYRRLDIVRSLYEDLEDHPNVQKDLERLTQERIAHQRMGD
T1 sequence (Q15370 whole entry partner): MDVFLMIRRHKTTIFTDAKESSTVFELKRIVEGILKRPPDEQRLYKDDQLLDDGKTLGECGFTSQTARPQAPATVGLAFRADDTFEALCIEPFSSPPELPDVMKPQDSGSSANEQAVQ
T1 sequence (Q15369 17-112 partner limits assumed): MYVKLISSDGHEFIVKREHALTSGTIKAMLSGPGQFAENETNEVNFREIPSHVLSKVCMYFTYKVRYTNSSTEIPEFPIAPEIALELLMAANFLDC

Regarding `CC[C@H](C)[C@H](NC(=O)[C@H](Cc1ccc(O)cc1)NC(=O)[C@@H]1C[C@@H](O)CN1C(=O)[C@@H](NC(=O)[C@H](CC(C)C)NC(=O)[C@@H](NC(=O)[C@H](CCC(=O)O)NC(=O)[C@H](CC(C)C)NC(=O)[C@H](CC(=O)O)NC(=O)[C@H](CC(C)C)NC(=O)[C@H](CCC(=O)O)NC(=O)CCCC[C@@H]1SC[C@@H]2NC(=O)N[C@@H]21)[C@@H](C)O)[C@@H](C)O)C(=O)N1CCC[C@H]1C(=O)N[C@@H](CCSC)C(=O)N[C@@H](CC(=O)O)C(=O)NCC(=O)N[C@@H](CCC(=O)O)C(=O)N[C@@H](CC(=O)O)C(=O)N[C@@H](Cc1ccccc1)C(=O)N[C@@H](CCC(N)=O)C(N)=O` [HIF-2αOH (A530T)], under setting [1], the “ka (association rate)” value is given as 3.4 ± 0.3 x10^4 Ms^−1. For `CC[C@H](C)[C@H](NC(=O)[C@H](Cc1ccc(O)cc1)NC(=O)[C@@H]1C[C@@H](O)CN1C(=O)[C@@H](NC(=O)[C@H](CC(C)C)NC(=O)[C@@H](NC(=O)[C@H](CCC(=O)O)NC(=O)[C@H](CC(C)C)NC(=O)[C@H](CC(=O)O)NC(=O)[C@H](CC(C)C)NC(=O)[C@H](CCC(=O)O)NC(=O)CCCC[C@@H]1SC[C@@H]2NC(=O)N[C@@H]21)[C@@H](C)O)C(C)C)C(=O)N1CCC[C@H]1C(=O)N[C@@H](CCSC)C(=O)N[C@@H](CC(=O)O)C(=O)NCC(=O)N[C@@H](CCC(=O)O)C(=O)N[C@@H](CC(=O)O)C(=O)N[C@@H](Cc1ccccc1)C(=O)N[C@@H](CCC(N)=O)C(N)=O` [HIF-2αOH (A530V)], the “ka (association rate)” value under setting [1] is on record as 2.7 ± 0.2 x10^4 Ms^−1. In the case of `CC[C@H](C)[C@H](NC(=O)[C@H](Cc1ccc(O)cc1)NC(=O)[C@@H]1C[C@@H](O)CN1C(=O)[C@H](C)NC(=O)[C@H](CC(C)C)NC(=O)[C@@H](NC(=O)[C@H](CCC(=O)O)NC(=O)[C@H](CC(C)C)NC(=O)[C@H](CC(=O)O)NC(=O)[C@H](CC(C)C)NC(=O)[C@H](CCC(=O)O)NC(=O)CCCC[C@@H]1SC[C@@H]2NC(=O)N[C@@H]21)[C@@H](C)O)C(=O)N1CCC[C@H]1C(=O)N[C@@H](CCSC)C(=O)N[C@@H](CC(=O)O)C(=O)NCC(=O)N[C@@H](CCC(=O)O)C(=O)N[C@@H](CCC(=O)O)C(=O)N[C@@H](Cc1ccccc1)C(=O)N[C@@H](CCC(N)=O)C(N)=O` [HIF-2αOH (D539E)], for the setting “BLI, HIF-2αOH peptides (523–541)”, the “binding to VBC compared to WT (in words)” value is given as “little defect”. Further, under setting [1], the “ka (association rate)” value is reported as 3.6 ± 0.05 x10^4 Ms^−1.

In the case of `CC[C@H](C)[C@H](NC(=O)[C@H](Cc1ccc(O)cc1)NC(=O)[C@@H]1C[C@@H](O)CN1C(=O)[C@H](C)NC(=O)[C@H](CC(C)C)NC(=O)[C@@H](NC(=O)[C@H](CCC(=O)O)NC(=O)[C@H](CC(C)C)NC(=O)[C@H](CC(=O)O)NC(=O)[C@H](CC(C)C)NC(=O)[C@H](CCC(=O)O)NC(=O)CCCC[C@@H]1SC[C@@H]2NC(=O)N[C@@H]21)[C@@H](C)O)C(=O)N1CCC[C@H]1C(=O)N[C@@H](CCSC)C(=O)N[C@@H](CC(=O)O)C(=O)NCC(=O)N[C@@H](CCC(=O)O)C(=O)N[C@@H](CC(=O)O)C(=O)N[C@@H](CC(C)C)C(=O)N[C@@H](CCC(N)=O)C(N)=O` [HIF-2αOH (F540L)], the “ka (association rate)” value was 31000 M/s (BLI, 1:1 model) and 3.1 ± 0.3 x10^4 Ms^−1 under setting [1]. `CC[C@H](C)[C@H](NC(=O)[C@H](Cc1ccc(O)cc1)NC(=O)[C@@H]1C[C@@H](O)CN1C(=O)[C@H](C)NC(=O)[C@H](CC(C)C)NC(=O)[C@@H](NC(=O)[C@H](CCC(=O)O)NC(=O)[C@H](CC(C)C)NC(=O)[C@H](CC(=O)O)NC(=O)[C@H](CC(C)C)NC(=O)[C@H](CCC(=O)O)NC(=O)CCCC[C@@H]1SC[C@@H]2NC(=O)N[C@@H]21)[C@@H](C)O)C(=O)N1CCC[C@H]1C(=O)N[C@@H](CCSC)C(=O)N[C@@H](CC(=O)O)C(=O)N[C@@H](CCCNC(=N)N)C(=O)N[C@@H](CCC(=O)O)C(=O)N[C@@H](CC(=O)O)C(=O)N[C@@H](Cc1ccccc1)C(=O)N[C@@H](CCC(N)=O)C(N)=O` [HIF-2αOH (G537R)]: the “ka (association rate)” value runs as follows: (BLI, 1:1 model) 30000 M/s; under setting [1], 3.0 ± 0.2 x10^4 Ms^−1.
